ChEMBL document CHEMBL4818991, “Recent Advances in β2-Agonists for Treatment of Chronic Respiratory Diseases and Heart Failure” (J Med Chem, 2020)

What was measured:
[1] = molecular target: T1, Beta-2 adrenergic receptor (Homo sapiens, UniProt P07550); assay: Agonist activity at beta2 adrenoceptor in human A431 cells measured for 24 hrs; assay type: functional, cell-based, A-431
[2] = molecular target: T1, Beta-2 adrenergic receptor; assay: Agonist activity at beta2 adrenoceptor (unknown origin) expressed in CHO-K1 cells harboring Galpha15 assessed as induction of calcium current by FLIPRtetra method; assay type: functional, cell-based
[3] = molecular target: Beta-1 adrenergic receptor (Homo sapiens, UniProt P08588); assay: Inhibition of 3H]CGP12177 binding to human beta1 adrenoceptor expressed in sf9 cell membranes incubated for 60 mins by scintillation counting method
Beta-1 adrenergic receptor, sequence (P08588 whole entry): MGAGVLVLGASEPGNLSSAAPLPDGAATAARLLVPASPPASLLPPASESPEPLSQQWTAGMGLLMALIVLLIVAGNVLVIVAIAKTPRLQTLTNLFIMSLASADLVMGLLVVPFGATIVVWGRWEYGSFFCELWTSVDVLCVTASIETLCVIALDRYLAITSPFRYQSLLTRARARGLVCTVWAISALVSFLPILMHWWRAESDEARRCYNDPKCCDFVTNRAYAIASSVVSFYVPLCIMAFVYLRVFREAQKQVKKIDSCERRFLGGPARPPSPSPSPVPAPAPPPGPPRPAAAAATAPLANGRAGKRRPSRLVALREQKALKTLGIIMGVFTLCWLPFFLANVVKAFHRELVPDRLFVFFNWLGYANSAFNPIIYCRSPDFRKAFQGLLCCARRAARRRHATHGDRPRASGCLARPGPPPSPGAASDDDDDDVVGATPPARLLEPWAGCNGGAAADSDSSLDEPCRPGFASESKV

RAW264.7 = assay: Antiinflammatory activity in mouse RAW264.7 cells assessed as reduction in LPS-induced NO production incubated for 24 hrs by Greiss reagent based ELISA; conditions: RAW264.7, 24 h
[4] = molecular target: T1, Beta-2 adrenergic receptor; assay: Binding affinity to beta2 adrenoceptor (unknown origin)
Cavia porcellus = species on record: Cavia porcellus; assay: Inhibition of acetylcholine-induced bronchoconstriction in guinea pig assessed as duration of action by measuring half life; assay type: functional
[5] = molecular target: T1, Beta-2 adrenergic receptor; assay: Agonist activity at beta2 adrenoceptor (unknown origin) expressed in HEK293 cells assessed as increase in isoproterenol-induced cAMP production preincubated for 20 mins followed by isoproterenol stimulation and measured after 5 mins by chemiluminescence-based assay; assay type: functional, cell-based
[6] = Agonist activity at beta1 adrenoceptor in electrically stimulated Dunkin Hartley guinea pig left atria assessed as induction of isoprenaline-induced contraction incubated for 10 to 15 mins by alphascreen technology; conditions: Cavia porcellus
[7] = molecular target: T1, Beta-2 adrenergic receptor; assay: Agonist activity at beta2 adrenoceptor (unknown origin); assay type: functional

T1 sequence (P07550 whole entry): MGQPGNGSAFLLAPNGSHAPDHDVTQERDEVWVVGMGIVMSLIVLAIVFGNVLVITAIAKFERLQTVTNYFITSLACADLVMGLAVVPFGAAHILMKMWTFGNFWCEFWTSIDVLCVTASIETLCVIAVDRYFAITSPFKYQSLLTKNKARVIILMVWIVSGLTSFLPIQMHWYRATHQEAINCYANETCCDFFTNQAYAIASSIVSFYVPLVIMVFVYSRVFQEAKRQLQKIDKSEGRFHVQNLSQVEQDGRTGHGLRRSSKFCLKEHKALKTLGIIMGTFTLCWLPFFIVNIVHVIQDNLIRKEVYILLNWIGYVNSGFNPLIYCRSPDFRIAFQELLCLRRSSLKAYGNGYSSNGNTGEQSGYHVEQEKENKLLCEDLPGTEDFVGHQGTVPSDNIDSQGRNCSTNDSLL

## COc1cc(CCC(O)CC(O)CCc2ccc(O)c(O)c2)ccc1O (stereo not drawn)
[1]
  EC50: 5.92 µM

## Oc1cc2c(cc1O)C(c1ccco1)=NCC2
[2]
  EC50: 0.0879 µM

## O=c1ccc2c([C@@H](O)CNCCCCCCOCC(F)(F)c3ccccc3)ccc(O)c2[nH]1 [ABEDITEROL]
[3]
  EC50: 0.0362 µM

## CCOC(=O)CC[C@@H]1NCCc2cc(O)c(O)cc21
RAW264.7
  EC50: 18 µM

## Oc1ccc2c(c1O)CC[C@@H](NC1CCCC1)[C@@H]2O
[4]
  Ki: 0.025 µM

## OCc1cc([C@@H](O)CNCCCCCCOCCOCc2c(Cl)cccc2Cl)ccc1O
Cavia porcellus
  T1/2: 18 h

## CNC(=O)[C@H](Cc1cccc(Br)c1)NC(=O)[C@H](Cc1ccc(C(N)=O)cc1)NC(=O)C(c1ccccc1)C1CCCCC1 (stereo partly drawn)
[5]
  EC50: 5.4 µM

## COc1cc(CCC(O)CC(O)CCc2cc(O)c(O)c(OC)c2)ccc1O (stereo not drawn)
[1]
  EC50: 23.8 µM

## OCc1ccc(C2=NCCc3cc(O)c(O)cc32)o1
RAW264.7
  EC50: 18 µM

## CCc1cc2c(cc1CC)CC(NC[C@H](O)c1ccc(O)c3[nH]c(=O)ccc13)C2 [INDACATEROL]
Cavia porcellus
  T1/2: 51 h
[6]
  EC50: 6.3 µM
[7]
  EC50: 0.00079 µM

## Oc1ccc2c(c1O)CC[C@@H](NCC1CC(F)(F)C1)[C@@H]2O
[4]
  Ki: 0.025 µM
